What was measured:
adult female rats = test: Post-coital antifertility efficacy in adult female rats; format: in vivo, rat; conditions: daily dose 10 mg/kg, oral, days 1-7 post-coitum
estrogen receptors = molecular target: T1, estrogen receptors (Rattus norvegicus, UniProt P06211); test: Relative binding affinity (RBA) to estrogen receptors, 3H-estradiol competition assay; parameters: key: % of 17-beta-estradiol binding affinity (estradiol = 100); conditions: relative to 17-beta-estradiol (=100, percentage value); rat uterine cytosol, 3H-E2, 18 hrs at 4° C.
T1 construct: Aliquot of uterine cytosol (200 μl; 2 uteri per ml) prepared in TEA buffer; from tissue; host or cells: uterine cytosol of immature estradiol-primed 20-21 day old rats
T1 sequence (P06211 1-600): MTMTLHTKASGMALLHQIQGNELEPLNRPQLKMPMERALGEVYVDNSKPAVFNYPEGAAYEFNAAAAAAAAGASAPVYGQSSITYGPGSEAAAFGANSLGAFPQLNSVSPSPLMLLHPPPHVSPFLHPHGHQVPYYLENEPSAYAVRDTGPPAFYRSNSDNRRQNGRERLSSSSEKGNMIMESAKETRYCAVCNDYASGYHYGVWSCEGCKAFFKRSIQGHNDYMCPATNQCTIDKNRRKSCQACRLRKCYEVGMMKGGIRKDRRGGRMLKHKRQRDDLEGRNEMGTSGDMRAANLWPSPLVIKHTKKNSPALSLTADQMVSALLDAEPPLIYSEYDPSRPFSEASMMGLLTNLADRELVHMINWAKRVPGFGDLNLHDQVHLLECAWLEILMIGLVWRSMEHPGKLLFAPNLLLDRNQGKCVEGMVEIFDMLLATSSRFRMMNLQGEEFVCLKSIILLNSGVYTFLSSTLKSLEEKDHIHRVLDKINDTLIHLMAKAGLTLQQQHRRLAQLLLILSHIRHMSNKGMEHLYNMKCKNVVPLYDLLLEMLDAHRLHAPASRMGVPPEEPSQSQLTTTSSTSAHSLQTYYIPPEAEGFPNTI
Outline: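 Competition against a fixed concentration of ³H-estradiol for cytosolic receptor from uteri of immature (20-21 day) estradiol-primed rats, in TEA buffer pH 7.4 with ≤5% DMF, 18 h at 4° C. Free ligand removed with dextran-coated charcoal; bound radioactivity counted and RBA read from percent-bound vs log concentration plot, expressed as percentage.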

[1] = tested on: chick fetal bones in culture; test: Inhibition in PTH-induced resorption of 45Ca from chick fetal bones in culture (antiresorptive activity in vitro); format: cell-based; conditions: Gallus gallus, 96 h, PTH-induced 45Ca resorption, 96 h culture, read-out: T/C ratio
Description: 5 μl of each concentration are used for evaluation of antiresorptive activity in vitro. In control experiments, 5 μl of appropriate solvent is used in lieu of the test compound. Femur bones are isolated from chick embryos on day 11 post-ovulation. The adhering soft connective tissue is completely removed. Each femur bone is then placed in a drop of phosphate buffered saline (PBS) and is transferred to BGJb culture medium containing ^45CaCl2 and incubated for 2 h. Labeled femur bones are washed 2-3 times with PBS and transferred to BGJb medium containing parathyroid hormone and cultured for 96 h in the presence or absence of the compound of invention or the vehicle in BGJb medium. Contralateral femur of each fetus serves as corresponding control. Culture medium with the respective treatment in each well is changed after 48 h. On termination of the culture at 96 h, bones are transferred to 0.1 N HCl for 24 h. Radioactivity due to ^45Ca in the spent medium collected at 48 and 96 h of culture and HCl extract at 96 h of culture is quantified by Liquid Scintillation Spectrophotometer in 10 ml of the scintillation fluid. Bone resorbing activity is expressed as percentage of ^45Ca released into the culture medium and the effect of the compound of invention as percent of the corresponding contra-lateral control or T/C ratio as shown below: [formula]
Appropriate solvents are selected from solvents like water, physiological saline, phosphate buffered saline, phosphate buffer, DMSO alone or in a suitable combination thereof.

[2] = tested on: immature ovariectomized rats; test: Estrogen antagonistic activity: inhibition in 17α-ethynylestradiol induced uterine weight gain in immature ovariectomized rats; format: in vivo, rat; conditions: Rattus norvegicus, 72 h, 3 days, read-out: Percent inhibition in 17α-ethynylestradiol induced uterine weight gain; for inhibition in vivo at 10 mg/kg/day: daily dose 10 mg/kg with 0.02 mg/kg 17-alfa-ethynylestradiol

Row | SMILES | % Efficacy (adult female rats) | RBA (estrogen receptors) | activity at 25 µM ([1]; 25 μM) | activity at 50 µM ([1]; 50 μM) | activity at 200 µM ([1]; 200 μM) | inhibition in vivo at 1 mg/kg/day ([2]; daily dose 1 mg/kg with 0.02 mg/kg 17-alfa-ethynylestradiol) | inhibition in vivo at 10 mg/kg/day [2] | activity at 100 µM ([1]; 100 μM)
1 | CCCCN(C)CCCCCn1c2c(c3ccccc31)CCSc1ccccc1-2 [Example number 13, 12-[5-(N-butylmethylamino)pentyl]-6,7-dihydro-12H-benzothiepino [5,4-b]indole] | Inactive | <0.001 | 33% | 41% | 61% | 12% | 37% | 
2 | c1ccc2c(c1)SCCc1c-2n(CCCCCCN2CCCCC2)c2ccccc12 [Example number 18, 12-[6-(Piperidine-1-yl)hexyl]-6,7-dihydro-12H-benzothiepino [5,4-b]indole] | Inactive | 0.17 |  |  |  |  | 19% | 160%

Source: patent US20050282863A1, “Novel-N substituted dihydrobenzothiepino, dihydrobenzoxepino and tetrahydro benzocyclohepta indoles as selective estrogen receptor modulators” (Council of Scientific & Industrial Research, priority 2004, published 2005)
